Measured values published in ChEMBL document CHEMBL4418487, “Max binders as myc modulators and uses thereof” (2017).
Calls of active or inactive are those of the source. No cut-off for these calls is given here.

Experiments:
[1] = Cytotoxicity against human P493-6 cells with where Myc is in OFF- condition assessed as reduction in cell viability incubated for 3 days by CellTiter-Glo assay; type: cell-based
[2] = target: Protein max (Homo sapiens) (UniProt P61244); assay: Binding affinity to Max in human P493-6 cells at 5 to 10 uM using AlexaFluor-tagged compound by Western blotting analysis based target engagement assay; type: cell-based
[3] = target: Protein max (Homo sapiens) (UniProt P61244); assay: Binding affinity to Max in human P493-6 cells using Biotin with streptavidin enrichment by Western blotting analysis based target engagement assay; type: cell-based
[4] = target: Protein max (Homo sapiens) (UniProt P61244); assay: Binding affinity to Max in human P493-6 cells at 5 to 10 uM using AlexaFluor-tagged compound in presence of 20 uM soluble KI-MS2-008 by Western blotting analysis based target engagement assay; type: cell-based
ST486 = assay: Cytotoxicity against human ST486 cells assessed as reduction in cell viability incubated for 3 days by CellTiter-Glo assay; type: functional, cell-based
[5] = target: Protein max (Homo sapiens) (UniProt P61244); assay: Binding affinity to Max in human P493-6 cells using Bio-MS2 by Western blotting analysis based pull down assay; type: cell-based
Homo sapiens [6] = species on record: Homo sapiens; assay: Cytotoxicity against human GBM4 cells assessed as reduction in cell viability incubated for 4 days by CellTiter-Glo assay; type: functional, cell-based
CA46 = assay: Cytotoxicity against human CA46 cells assessed as reduction in cell viability incubated for 3 days by CellTiter-Glo assay; type: functional, cell-based
NCI-H1963 = assay: Cytotoxicity against human NCI-H1963 cells assessed as reduction in cell viability incubated for 3 days by CellTiter-Glo assay; type: functional, cell-based
[7] = target: Protein max (Homo sapiens) (UniProt P61244); assay: Binding affinity to Max in human P493-6 cells using 2 mg protein by immunoblotting based pull down assay; type: cell-based
[8] = target: Myc proto-oncogene protein (Homo sapiens) (UniProt P01106); assay: Binding affinity to MYC in human P493-6 cells using 2 mg protein by immunoblotting based pull down assay; type: cell-based
Astrocyte = assay: Cytotoxicity against normal human astrocytes assessed as reduction in cell viability incubated for 4 days by CellTiter-Glo assay; type: cell-based; settings: 96 h
[9] = Cytotoxicity against human P493-6 cells with where Myc is in ON- condition assessed as reduction in cell viability incubated for 3 days by CellTiter-Glo assay; type: functional, cell-based
c-Myc/Max (Homo sapiens) = c-Myc/Max (Homo sapiens) (UniProt P01106+P61244); assay: Inhibition of c-Myc/Max heterodimer interaction in human P493-6 cells by electrophoretic mobility shift assay; type: cell-based
Homo sapiens [10] = assay: Antitumor activity against Luc-labeled and MYC-driven human T-ALL 4188 cells xenografted in immune-compromised NSG mouse assessed as reduction in tumor volume at 10 mg/ml dosed in corn oil every other day during day 2 to 16 after tumor implantation; type: functional, organism-based
[11] = target: Myc proto-oncogene protein (Homo sapiens) (UniProt P01106); assay: Binding affinity to c-Myc in human P493-6 cells at […] incubated for 30 mins by immunoprecipitation based assay; type: cell-based
[12] = Toxicity in healthy mouse assessed as effect on behavior at 0.731 mg/kg, po dosed daily using cyclodextrin vehicle for 7 days measured on each day; type: organism-based; settings: in vivo, 168 h
[13] = Drug level in mouse plasma at 20 uM, po by LC/MS analysis; type: ADME, organism-based; settings: in vivo
[14] = Hepatic toxicity in healthy mouse assessed as induction of liver damage at 0.731 mg/kg, po dosed daily using cyclodextrin vehicle for 7 days by H and E staining histological analysis; type: organism-based; settings: in vivo, 168 h
Homo sapiens [15] = assay: Antitumor activity against Luc-labeled and MYC-driven human T-ALL 4188 cells xenografted in immune-compromised NSG mouse assessed as reduction in tumor volume using tumor cells pre-treated with 20 uM compound for 24 hrs; type: functional
[16] = Drug level in mouse plasma at 100 to 200 uM, po dosed using cyclodextrin vehicle by LC/MS analysis; type: ADME, organism-based; settings: in vivo
[17] = Toxicity in healthy mouse assessed as effect on behavior at 0.364 mg/kg, po dosed daily using cyclodextrin vehicle for 7 days measured on each day; type: organism-based; settings: in vivo, 168 h
[18] = Toxicity in healthy mouse assessed as effect on liver at 0.364 mg/kg, po dosed daily using cyclodextrin vehicle for 7 days by H and E staining histological analysis; type: organism-based; settings: in vivo, 168 h
[19] = Toxicity in healthy mouse assessed as effect on liver at 0.731 mg/kg, po dosed daily using cyclodextrin vehicle for 7 days by H and E staining histological analysis; type: organism-based; settings: in vivo, 168 h
[20] = target: Protein max (Homo sapiens) (UniProt P61244); assay: Binding affinity to Max in human P493-6 cells assessed as effect on Max interactome by measuring perturbation in Mxd4 level at […] incubated for 30 mins by immunoprecipitation based assay; type: cell-based
[21] = Renal toxicity in healthy mouse assessed as induction of kidney damage at 0.364 mg/kg, po dosed daily using cyclodextrin vehicle for 7 days by H and E staining histological analysis; type: organism-based; settings: in vivo, 168 h
[22] = target: Protein max (Homo sapiens) (UniProt P61244); assay: Binding affinity to Max in human P493-6 cells assessed as effect on Max interactome by measuring perturbation in Rcor1 level at […] incubated for 30 mins by immunoprecipitation based assay; type: cell-based
[23] = target: Protein max (Homo sapiens) (UniProt P61244); assay: Induction of Max homodimer stabilization in human P493-6 cells assessed as increase in Max homodimer binding to DNA by electrophoretic mobility shift assay; type: cell-based
[24] = target: Protein max (Homo sapiens) (UniProt P61244); assay: Binding affinity to Max in human P493-6 cells at […] incubated for 30 mins by immunoprecipitation based assay; type: cell-based
[25] = Toxicity in healthy mouse assessed as effect on body weight at 0.364 mg/kg, po dosed daily using cyclodextrin vehicle for 7 days measured on each day; type: organism-based; settings: in vivo, 168 h
[26] = Retention time of the compound by LC/MS analysis; type: physicochemical
[27] = Renal toxicity in healthy mouse assessed as induction of kidney damage at 0.731 mg/kg, po dosed daily using cyclodextrin vehicle for 7 days by H and E staining histological analysis; type: organism-based; settings: in vivo, 168 h
[28] = target: Protein max (Homo sapiens) (UniProt P61244); assay: Binding affinity to Max in human P493-6 cells assessed as effect on Max interactome by measuring perturbation in Nacc2 level at […] incubated for 30 mins by immunoprecipitation based assay; type: cell-based
[29] = Toxicity in healthy mouse assessed as effect on body weight at 0.731 mg/kg, po dosed daily using cyclodextrin vehicle for 7 days measured on each day; type: organism-based; settings: in vivo, 168 h
[30] = target: Protein max (Homo sapiens) (UniProt P61244); assay: Induction of recombinant human Max homodimer stabilization at 10 uM pre-incubated for 1 hr with protein and measured after 18 hrs
[31] = Drug level in mouse plasma at 20 uM, iv by LC/MS analysis; type: ADME, organism-based; settings: in vivo
[32] = target: Protein max (Homo sapiens) (UniProt P61244); assay: Binding affinity to Max in human P493-6 cells assessed as decrease in Myc protein levels; type: cell-based
[33] = target: Protein max (Homo sapiens) (UniProt P61244); assay: Binding affinity to Max in human P493-6 cells assessed as decrease in Myc protein levels at 10 uM in presence of 10 uM proteasome inhibitor MG132; type: cell-based
[34] = Drug level in plasma (unknown origin) at 0.2 to 10 uM by serial dilution-lowest detection limit test; type: ADME, cell-free
[35] = target: Protein max (Homo sapiens) (UniProt P61244); assay: Binding affinity to Max in human P493-6 cells assessed as effect on Max interactome by measuring perturbation in Myc level at […] incubated for 30 mins by immunoprecipitation based assay; type: cell-based
[36] = target: Protein max (Homo sapiens) (UniProt P61244); assay: Binding affinity to Max in human P493-6 cells assessed as induction of perturbation in transcriptional programs after 45 mins; type: cell-based
[37] = target: Protein max (Homo sapiens) (UniProt P61244); assay: Binding affinity to Max in human P493-6 cells assessed as effect on Max interactome by measuring perturbation in Atg16l1 level at […] incubated for 30 mins by immunoprecipitation based assay; type: cell-based
[38] = target: Protein max (Homo sapiens) (UniProt P61244); assay: Binding affinity to Max in human P493-6 cells assessed as effect on Max interactome by measuring perturbation in Yaf2 level at […] incubated for 30 mins by immunoprecipitation based assay; type: cell-based
Homo sapiens [39] = assay: Antitumor activity against Luc-labeled and MYC-driven human T-ALL 4188 cells xenografted in immune-compromised NSG mouse assessed as reduction in tumor volume at 20 uM, iv measured during 2 to 12 days after tumor implantation; type: functional, organism-based
[40] = target: Protein max (Homo sapiens) (UniProt P61244); assay: Binding affinity to Max in human P493-6 cells assessed as decrease in Myc transcript levels by qPCR analysis; type: cell-based

Chain of Protein max (Homo sapiens) (P61244 whole entry): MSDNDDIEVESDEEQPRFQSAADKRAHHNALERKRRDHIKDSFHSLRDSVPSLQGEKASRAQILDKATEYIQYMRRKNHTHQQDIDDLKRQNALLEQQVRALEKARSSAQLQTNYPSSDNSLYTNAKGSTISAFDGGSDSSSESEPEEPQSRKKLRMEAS
Chain of Myc proto-oncogene protein (Homo sapiens) (P01106 whole entry): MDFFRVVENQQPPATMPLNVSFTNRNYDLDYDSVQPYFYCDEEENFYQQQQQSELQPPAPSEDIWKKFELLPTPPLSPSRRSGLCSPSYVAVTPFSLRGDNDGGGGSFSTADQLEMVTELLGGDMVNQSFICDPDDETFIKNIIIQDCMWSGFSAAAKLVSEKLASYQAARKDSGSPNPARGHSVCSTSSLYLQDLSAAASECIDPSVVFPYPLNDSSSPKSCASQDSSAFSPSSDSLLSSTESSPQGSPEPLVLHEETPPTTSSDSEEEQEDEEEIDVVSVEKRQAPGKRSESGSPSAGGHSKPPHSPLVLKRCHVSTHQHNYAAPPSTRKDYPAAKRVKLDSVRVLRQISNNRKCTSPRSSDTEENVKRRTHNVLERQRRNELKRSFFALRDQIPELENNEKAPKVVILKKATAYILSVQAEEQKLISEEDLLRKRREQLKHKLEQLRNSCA

O=C1NCc2ccccc2[C@@H]2OC(c3ccccc3)=N[C@]12Cc1ccccc1
IC50 ([1]; Homo sapiens, P493-6, 72 h): > 50 µM

O=C1N(CCS(=O)(=O)c2ccccc2)Cc2ccccc2[C@@H]2OC(c3ccc(OCCCO)cc3)=N[C@]12Cc1ccccc1
IC50 [1]: > 50 µM

O=C(O)CN1Cc2ccccc2[C@@H]2OC(c3ccccc3)=N[C@]2(Cc2ccccc2)C1=O
IC50 ([1]; Homo sapiens, P493-6, 72 h): > 50 µM

CCOC(=O)CN1Cc2ccccc2[C@@H]2OC(c3ccccc3)=N[C@]2(Cc2ccccc2)C1=O
IC50 ([1]; Homo sapiens, P493-6, 72 h): > 50 µM

CCN(CC(=O)NCCNC(=O)CN1Cc2ccccc2[C@@H]2OC(c3ccccc3)=N[C@]2(Cc2ccccc2)C1=O)C(=O)CCC1(C)N=N1
Activity [2]: Active | Activity [3]: Active | Activity [4]: inactive

O=C1N(CCS(=O)(=O)c2ccccc2)Cc2ccccc2[C@@H]2OC(c3ccc(OCCCO)cc3)=N[C@]12Cc1ccccc1 (racemic) [listing 1 of 2 here]
Activity (ST486): Active | Activity [5]: Active | Activity (Homo sapiens [6]): Active | Activity (CA46): Active | Activity (NCI-H1963): Active

NCCOCCOCCNC(=O)CN1Cc2ccccc2[C@@H]2OC(c3ccccc3)=N[C@]2(Cc2ccccc2)C1=O
Activity [7]: Active | Activity [8]: Active

O=C1N(CCS(=O)(=O)c2ccccc2)Cc2ccccc2[C@@H]2OC(c3ccc(OCCCO)cc3)=N[C@]12Cc1ccccc1 (racemic) [listing 2 of 2 here]
Activity (Astrocyte): Non-Toxic | IC50 [9]: 6.8 to 14.5 µM | IC50 ([1]; Homo sapiens, P493-6, 72 h): 50 to 58.1 µM

CC(=O)N1Cc2ccccc2[C@@H]2OC(c3ccccc3)=N[C@]2(Cc2ccccc2)C1=O
IC50 ([9]; Homo sapiens, P493-6, 72 h): 19.3 µM | IC50 ([1]; Homo sapiens, P493-6, 72 h): > 50 µM

O=C1N(CCS(=O)(=O)c2ccccc2)Cc2cc(Cl)ccc2[C@@H]2OC(c3ccccc3)=N[C@]12Cc1ccccc1
IC50 ([9]; Homo sapiens, P493-6, 72 h): 25.8 µM | IC50 ([1]; Homo sapiens, P493-6, 72 h): > 50 µM

C=CCN1Cc2ccccc2[C@@H]2OC(c3ccccc3)=N[C@]2(Cc2ccccc2)C1=O
IC50 ([1]; Homo sapiens, P493-6, 72 h): > 50 µM

O=C1N(CCS(=O)(=O)c2ccccc2)Cc2ccccc2[C@@H]2OC(c3ccccc3)=N[C@]12Cc1ccccc1
inhibition (c-Myc/Max (Homo sapiens)): inactive | Activity (Homo sapiens [10]): Active | Activity [11]: Active | Activity [12]: Non-Toxic | Drug uptake [13]: Not Active | Activity [14]: Non-Toxic | Activity (Homo sapiens [15]): Active | Drug uptake [16]: Active | Activity [17]: Non-Toxic | Activity [18]: Non-Toxic | Activity [19]: Non-Toxic | Activity [20]: Active | Activity [21]: Non-Toxic | Activity [22]: Active | Activity [23]: Dose-dependent effect | Activity [24]: Active | Activity [25]: Non-Toxic | Retention_time [26]: 9 min | Activity [27]: Non-Toxic | Activity [28]: Active | Activity [29]: Non-Toxic | Activity [30]: Active | Drug uptake [31]: Active | Activity [32]: Dose-dependent effect | Activity [33]: inactive | Drug uptake [34]: Active | Activity [35]: Active | Activity [36]: Active | IC50 ([1]; Homo sapiens, P493-6, 72 h): > 50 µM | Activity [37]: Active | Activity [38]: Active | Activity (Homo sapiens [39]): Active | Activity [40]: Active

O=C(c1ccccc1)N1Cc2ccccc2[C@@H]2OC(c3ccccc3)=N[C@]2(Cc2ccccc2)C1=O
IC50 ([9]; Homo sapiens, P493-6, 72 h): > 50 µM | IC50 ([1]; Homo sapiens, P493-6, 72 h): > 50 µM
